In patent publication US20230096028A1, “BICYCLIC HETEROCYCLYL COMPOUNDS AND USES THEREOF” (Revolution Medicines, Inc., priority 2019, published 2023):
Like-named read-outs stand apart in the source and are kept apart here.

Columns and labels:
[1] = system: PC-9 cells (EGFR Ex19Del); assay: Potency Assay: pERK (SOS1 pERK IC50 Assay, AlphaLISA SureFire Ultra p-ERK1/2); assay type: cell-based; conditions: Homo sapiens, read-out: SOS1 pERK IC50
Protocol: The purpose of this assay is to measure the ability of test compounds to inhibit SOS1 function in cells. SOS1 activates RAS proteins by catalyzing the conversion of RAS GDP to RAS GTP in response to receptor tyrosine kinase activation. […] The procedure described below measures the level of cellular pERK in response to test compounds in PC-9 cells (EGFR Ex19Del).
PC-9 cells were grown and maintained using media and procedures recommended by the ATCC. On the day prior to compound addition, cells were plated in 384-well cell culture plates (40 μL/well) and grown overnight in a 37° C., 5% CO2 incubator. Test compounds were prepared in 10, 3-fold dilutions in DMSO, with a top concentration of 10 mM. On the day of the assay, 40 nL of test compound was added to each well of cell culture plate using an Echo550 liquid handler (LabCyte). Concentrations of test compound were tested in duplicate with highest test concentration being 10 μM. After compound addition, cells were incubated for 1 hour at 37° C., 5% CO2. Following incubation, culture medium was removed and cells were washed once with phosphate buffered saline.
Cellular pERK level was determined using the AlphaLISA SureFire Ultra p-ERK1/2 Assay Kit (PerkinElmer). Cells were lysed in 25 μL lysis buffer, with shaking at 600 RPM at room temperature for 15 minutes. Lysate (10 μL) was transferred to a 384-well Opti-plate (PerkinElmer) and 5 μL acceptor mix was added. The plate was centrifuged at 1000 RPM for 1 minute, and incubated in the dark for 2 hours. Following this incubation, 5 μL of donor mix was added, the plate was sealed and centrifuged at 1000 RPM for 1 minute, and the mixture was incubated for 2 hours at room temperature. Signal was read on an Envision plate reader (PerkinElmer) using standard AlphaLISA settings. Analysis of raw data was carried out in Excel (Microsoft) and Prism (GraphPad). Signal was plotted vs. the decadal logarithm of compound concentration, and IC50 was determined by fitting a 4-parameter sigmoidal concentration response model.

[2] = molecular target: T1, SOS1 catalytic domain (residues 564-1049) (Homo sapiens, UniProt Q07889); assay: Mode of Action Assay: inhibition of SOS1 nucleotide exchange activity (SOS1 TR-FRET IC50 Assay)
T1 sequence (Q07889 564-1049): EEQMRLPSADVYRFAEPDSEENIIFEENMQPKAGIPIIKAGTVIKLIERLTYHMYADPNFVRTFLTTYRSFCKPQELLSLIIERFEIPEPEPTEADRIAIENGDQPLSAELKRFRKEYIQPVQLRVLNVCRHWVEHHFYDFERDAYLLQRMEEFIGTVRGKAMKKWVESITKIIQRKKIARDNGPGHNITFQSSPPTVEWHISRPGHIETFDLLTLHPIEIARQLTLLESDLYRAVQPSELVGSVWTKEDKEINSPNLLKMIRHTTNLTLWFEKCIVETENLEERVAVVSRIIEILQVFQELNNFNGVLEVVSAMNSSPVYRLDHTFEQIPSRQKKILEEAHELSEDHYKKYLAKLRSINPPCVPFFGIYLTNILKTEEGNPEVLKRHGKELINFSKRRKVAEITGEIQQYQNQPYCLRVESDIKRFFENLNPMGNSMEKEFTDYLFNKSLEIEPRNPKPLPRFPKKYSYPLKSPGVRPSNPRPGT
Protocol: The purpose of this assay was to characterize the inhibitory activity of compounds on SOS1 nucleotide exchange of KRAS. Data was reported as IC50 values based on the TR-FRET signal.
Note—the following protocol describes a procedure for monitoring the inhibition of SOS1 nucleotide exchange activity of wild-type KRAS in response to a compound of the invention.
The SOS1/compound mixture was incubated at room temperature with constant mixing on an orbital shaker for 20 minutes to allow the reaction to reach equilibrium. […] This mixture was prepared immediately before addition to the SOS1/compound mixture to prevent intrinsic nucleotide exchange. Then 5 μL of the pre-incubated SOS1/compound mixture and 7.5 μL of the KRAS mixture were added sequentially in a 384-well low volume black round bottom plate and incubated at room temperature with constant shaking for 30 minutes. Time-resolved fluorescence was measured on a PerkinElmer Envision plate reader.
Three replicates were performed for each compound. Data were normalized by the following: (Positive control−Sample signal)/(Positive control−negative control)*100. The data were fit using a four-parameter logistic fit.

[3] = PC-9 cells (EGFR Ex19Del), 1 hour incubation, AlphaLISA p-ERK1/2

Row | Compound | IC50 [1, 3] [nM] | IC50 [2] [nM] | IC50 ([1]; PC-9, 1 h) [nM]
1 | C[C@@H](Nc1ncnc2c1CN(C1CCOCC1)C(=O)N2C)c1cc(N)cc(C(F)(F)F)c1 [Example 176, (R)-5-((1-(3-amino-5-(trifluoromethyl)phenyl)ethyl)amino)-1-methyl-3-(tetrahydro-2H-pyran-4-yl)-3,4-dihydropyrimido[4,5-d]pyrimidin-2(1H)-one] | < 1000 | < 1000 | 
2 | COC1(C(=O)N2CCc3nc(Cl)nc(N[C@H](C)c4cc(N)cc(C(F)(F)F)c4)c3C2)CCCOC1 (stereo partly shown) [Example 224] | > 1000 | > 1000 | 
3 | C[C@@H](Nc1nc(Cl)nc2c1C[C@H](N1CCOCC1)CC2)c1cccc(C(F)F)c1F [Example 441] | > 1000 | < 1000 | 
4 | C[C@@H](Nc1nc(Cl)nc2c1CN(C(=O)c1cccc(Cl)n1)CC2)c1cc(N)cc(C(F)(F)F)c1 [Example 252] | > 1000 | > 1000 | 
5 | Cc1nc2c(c(N[C@H](C)c3cc(N)cc(C(F)(F)F)c3)n1)CCN(C(=O)N1CCOCC1)CC2 [Example 112, N-[(1R)-1-[3-amino-5-(trifluoromethyl)phenyl]ethyl]-2-methyl-7-(morpholine-4-carbonyl)-5H,6H,7H,8H,9H-pyrimido[4,5-d]-azepin-4-amine] | > 1000 | > 1000 | 
6 | COC1COCCC1CC(=O)N1Cc2nc(Cl)nc(N[C@H](C)c3cc(N)cc(C(F)(F)F)c3)c2C1 (stereo partly shown) [Example 258] | < 1000 | < 1000 | 
7 | C[C@@H](Nc1nc(Cl)nc2c1CN(C(=O)C1OCCN(C)C1=O)C2)c1cccc(C(F)F)c1F (stereo partly shown) [Example 301] | < 1000 | < 1000 | 
8 | C[C@@H](Nc1nc(Cl)nc2c1CN(C(=O)C13CC(C)(C1)OC31COC1)CC2)c1cc(N)cc(C(F)(F)F)c1 [Example 210] | > 1000 | > 1000 | 
9 | CC(Nc1nc(Cl)nc2c1CN(C(=O)N1CCOCC1)C2)c1cccc(C(F)(F)CO)c1Cl (stereo not shown) [Example 506, 2-[2-chloro-3-(1-{[2-chloro-6-(morpholine-4-carbonyl)-5H,6H,7H-pyrrolo[3,4-d]pyrimidin-4-yl]amino}ethyl)phenyl]-2,2-difluoro-ethan-1-ol] | < 1000 | < 1000 | 
10 | COCC1(C(=O)N2CCc3nc(Cl)nc(N[C@H](C)c4cc(N)cc(C(F)(F)F)c4)c3C2)CCC1 [Example 204] | > 1000 | < 1000 | 
11 | COC(F)(F)c1cccc([C@@H](C)Nc2nc(Cl)nc3c2CN(C(=O)N2CCOCC2)C3)c1 [Example 475, 2-chloro-N-[(1R)-1-{3-[difluoro(methoxy)methyl]phenyl}ethyl]-6-(morpholine-4-carbonyl)-5H,6H,7H-pyrrolo[3,4-d]pyrimidin-4-amine] | > 1000 | > 1000 | 
12 | CC(Nc1nc(Cl)nc2c1CN(C(=O)N1CCOCC1)C2)c1cccc2c1C[C@@H](CO)C2 (stereo in doubt) [Example 465, (2-chloro-4-(((R)-1-((S)-2-(hydroxymethyl)-2,3-dihydro-1H-inden-4-yl)ethyl)amino)-5,7-dihydro-6H-pyrrolo[3,4-d]pyrimidin-6-yl)(morpholino)methanone] | > 1000 | > 1000 | 
13 | CC(Nc1nc(Cl)nc2c1CN(C(=O)N1CCOCC1)C2)c1cc(C(F)(F)F)ccn1 (stereo not shown) [Example 472, 2-chloro-6-(morpholine-4-carbonyl)-N-{1-[4-(trifluoromethyl)pyridin-2-yl]ethyl}-5H,6H,7H-pyrrolo[3,4-d]pyrimidin-4-amine] | > 1000 | > 1000 | 
14 | C[C@@H](Nc1nc(Cl)nc2c1CN(C(=O)C1(O)CCOCC1)CC2)c1cc(N)cc(C(F)(F)F)c1 [Example 189] | > 1000 | > 1000 | 
15 | C[C@@H](Nc1nc(Cl)nc2c1CN(C(=O)N1CCOC(c3cccnc3)C1)C2)c1cc(N)cc(C(F)(F)F)c1 (stereo partly shown) [Example 151] | < 1000 | < 1000 | 
16 | COC12CCC(C(=O)N3CCc4nc(Cl)nc(N[C@H](C)c5cc(N)cc(C(F)(F)F)c5)c4C3)(CC1)C2 [Example 196] | > 1000 | > 1000 | 

Row | Compound | IC50 [1, 3] [nM] | IC50 [2] [nM] | IC50 ([1]; PC-9, 1 h) [nM]
17 | C[C@@H](Nc1nc(Cl)nc2c1CN(C(=O)c1ccc3c(n1)OCCO3)CC2)c1cc(N)cc(C(F)(F)F)c1 [Example 249] | > 1000 | > 1000 | 
18 | C[C@@H](Nc1nc(Cl)nc2c1CN(C(=O)C1(C#N)CCC1)CC2)c1cc(N)cc(C(F)(F)F)c1 [Example 202] | > 1000 | > 1000 | 
19 | C[C@@H](Nc1nc(O)nc2c1CN(C(=O)N1CCOCC1)C2)c1cc(N)cc(C(F)(F)F)c1 [Example 55] | > 1000 | < 1000 | 
20 | C[C@@H](Nc1nc(Cl)nc2c1CN(C(=O)N1CCOCC1)C2)c1cncc(C(F)(F)F)c1 [Example 480, 2-chloro-6-(morpholine-4-carbonyl)-N-[(1R)-1-[5-(trifluoromethyl)pyridin-3-yl]ethyl]-5H,6H,7H-pyrrolo[3,4-d]pyrimidin-4-amine] | > 1000 | > 1000 | 
21 | CC(Nc1nc(Cl)nc2c1CN(C(=O)N1CCOCC1)C2)c1cccc(S(C)(=O)=O)c1 (stereo not shown) [Example 497] | > 1000 | > 1000 | 
22 | CC(Nc1nc(Cl)nc2c1CN(C(=O)N1CCOCC1)C2)c1cccc(C2(F)CNC2)c1 (stereo not shown) [Example 517, [2-chloro-4-[1-[3-(3-fluoroazetidin-3-yl)phenyl]ethylamino]-5,7-dihydropyrrolo[3,4-d]pyrimidin-6-yl]-morpholino-methanone] |  | < 1000 | > 1000
23 | C[C@@H](Nc1nc(Cl)nc2c1CN(C(=O)N1CCOCC1)C2)c1cnc(C(F)(F)F)s1 [Example 474, 2-chloro-6-(morpholine-4-carbonyl)-N-[(1R)-1-[2-(trifluoromethyl)-1,3-thiazol-5-yl]ethyl]-5H,6H,7H-pyrrolo[3,4-d]pyrimidin-4-amine] | > 1000 | > 1000 | 
24 | COc1ccc(C(=O)N2CCc3nc(Cl)nc(N[C@H](C)c4cc(N)cc(C(F)(F)F)c4)c3C2)nc1 [Example 245] | > 1000 | > 1000 | 
25 | C[C@@H](Nc1nc(Cl)nc2c1CN(C(=O)C13CCC(CC1)O3)CC2)c1cc(N)cc(C(F)(F)F)c1 [Example 218] | > 1000 | > 1000 | 
26 | C[C@@H](Nc1nc(Cl)nc2c1CN(C(=O)N1CCOCC1)C2)c1ccc2cc[nH]c2c1 [Example 495] | > 1000 | > 1000 | 
27 | COc1cccc(C(=O)N2CCc3nc(Cl)nc(N[C@H](C)c4cc(N)cc(C(F)(F)F)c4)c3C2)n1 [Example 242] | > 1000 | < 1000 | 
28 | C[C@@H](Nc1nc(Cl)nc2c1CN(C(=O)C1CCC1)CC2)c1cc(N)cc(C(F)(F)F)c1 [Example 209] | > 1000 | > 1000 | 
29 | C[C@@H](Nc1nc(Cl)nc2c1CN(C(=O)N1CCNc3ccccc31)C2)c1cccc(C(F)(F)F)c1 [Example 372] | < 1000 | < 1000 | 
30 | COCC1(C(=O)N2CCc3nc(Cl)nc(N[C@H](C)c4cc(N)cc(C(F)(F)F)c4)c3C2)CC1 [Example 213] | > 1000 | > 1000 | 
31 | C[C@@H](Nc1nc(Cl)nc2c1CN(C(=O)C1CNC1)C2)c1cc(N)cc(C(F)(F)F)c1 [Example 268] | > 1000 | < 1000 | 
32 | C[C@@H](Nc1nc(Cl)nc2c1CN(C1CNC1)CC2)c1cccc(C(F)(F)F)c1 [Example 177, (R)-6-(azetidin-3-yl)-2-chloro-N-(1-(3-(trifluoromethyl)phenyl)ethyl)-5,6,7,8-tetrahydropyrido[4,3-d]pyrimidin-4-amine] | > 1000 | < 1000 | 
